Experimental data published in patent publication US20090035306A1 (KALYPSYS, INC., priority 2006, published 2009).

The compounds below were run against T1, human TGR5 (Homo sapiens, UniProt Q8TDU6) (assay: cAMP production assay in HEK293 cells stably expressing TGR5 (LANCE TR-FRET)). Settings: 30 minutes stimulation, read-out: cAMP Production in 293-TGR5 Cells EC50.
T1 construct: expressed in transfected cells
T1 sequence (Q8TDU6 1-330): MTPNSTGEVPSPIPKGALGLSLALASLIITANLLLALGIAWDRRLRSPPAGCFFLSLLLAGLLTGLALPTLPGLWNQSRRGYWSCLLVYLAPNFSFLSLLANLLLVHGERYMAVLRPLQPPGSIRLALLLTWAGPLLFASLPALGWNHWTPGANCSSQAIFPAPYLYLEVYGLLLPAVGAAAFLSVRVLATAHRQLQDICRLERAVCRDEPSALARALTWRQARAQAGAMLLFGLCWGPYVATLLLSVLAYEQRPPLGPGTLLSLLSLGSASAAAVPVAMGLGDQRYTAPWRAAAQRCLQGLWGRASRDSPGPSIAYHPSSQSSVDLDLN
Assay type: cell-based
Description: HEK293 cells stably expressing TGR5 (HEK293-TGR5) were established by stably transfecting HEK-293 cells with an expression vector (pcDNA 3.1, Invetrogen) inserted with human TGR5 cDNA using Fugene6 (Roche, Indianapolis, Ind.) according to conventional methods. Cells were grown in DMEM (invitrogen, Carlsbad, Calif.) supplemented with 10% FBS, 1% penicillin/streptomycin under geneticin selection. The presence of TGR5 transcripts in these cells was confirmed using branched DNA (bDNA, Genospectra, Inc., Fremont Calif.) following the manufacturer's protocol and using specific probes for human TGR5. cAMP production assay was performed in high throughput 1536 well format using LANCE cAMP detection kit (Perkin Elmer Inc., Boston, Mass.) according to the manufacturer's protocol. Briefly, HEK293-TGR5 cells were harvested using non-enzymatic cell dissociation buffer (Invitrogen, Carlsbad, Calif.) and suspended in DMEM supplemented with 0.1% FBS at a density of 800,000 cells/ml. Alexa antibody was added to the cell suspension, and 4 ul of the mixture was dispensed in white opaque tissue culture treated Greiner 1536 well plates (USA Scientific, Inc., Ocala, Fla.). After an overnight incubation at 37 C in an atmosphere of 10% CO2 and 95% humidity, 1 ul of 5 mM IBMX (Sigma, St. Louis, Mo.) solution in DMEM was dispensed for a final concentration of 1 mM. Cells were then stimulated with test compounds for 30 minutes, after which time 5 ul of detection reagent was added and incubated for 1-7 hrs at room temperature. TR-FRET signal was detected using the Viewlux (Perkin Elmer Inc., Boston Mass.). EC50 values were determined using Graph Pad Prizm analysis (GraphPad Software, Inc). The EC50 values for a wide range of bile acids generated from this assay were in agreement with the values published in the scientific literature. […] The symbol (+) denotes an EC50 value of ≦10 μM while the symbol (−) denotes an EC50 value of >10 μM (see Table 1).

`Cc1cc(-c2nc3ccccc3c(=O)n2NCc2ccc(Br)cc2)ccc1F` [Example 54, 3-(4-bromobenzylamino)-2-(4-fluoro-3-methylphenyl)quinazolin-4(3H)-one] and `Cc1cc(-c2nc3ccccc3c(=O)n2NCc2ccc(Cl)cc2)ccc1F` [Example 57, 3-(4-chlorobenzylamino)-2-(4-fluoro-3-methylphenyl)quinazolin-4(3H)-one] cannot be ordered by EC50: ≤ 10 µM for the first, ≤ 10 µM for the second.

`O=c1c2ccc(C(F)(F)F)cc2nc(-c2ccccc2F)n1NCc1ccc(Br)cc1` [Example 28, 3-(4-bromobenzylamino)-2-(2-fluorophenyl)-7-(trifluoromethyl)quinazolin-4(3H)-one] and `O=c1c2ccc(C(F)(F)F)cc2nc(-c2ccccc2F)n1NCc1ccc(Cl)cc1` [Example 30, 3-(4-chlorobenzylamino)-2-(2-fluorophenyl)-7-(trifluoromethyl)quinazolin-4(3H)-one] cannot be ordered by EC50: > 10 µM for the first, > 10 µM for the second.

`COc1ccc2nc(-c3ccccc3F)n(NCc3ccc(Br)cc3)c(=O)c2c1` [Example 26, 3-(4-bromobenzylamino)-2-(2-fluorophenyl)-6-methoxy quinazolin-4(3H)-one] and `COc1cccc(-c2nc3ccccc3c(=O)n2NCc2ccc(Br)cc2)c1` [Example 55, 3-(4-bromobenzylamino)-2-(3-methoxyphenyl)quinazolin-4(3H)-one] cannot be ordered by EC50: > 10 µM for the first, ≤ 10 µM for the second.

`O=c1c2ccccc2nc(-c2ccc(Cl)cc2)n1NCc1ccc(Cl)cc1` [Example 51, 3-(4-chlorobenzylamino)-2-(4-chlorophenyl)quinazolin-4(3H)-one] and `O=c1c2ccccc2nc(-c2ccc(O)cc2)n1NCc1ccc(Br)cc1` [Example 97, 3-(4-bromobenzylamino)-2-(4-hydroxyphenyl)quinazolin-4(3H)-one] cannot be ordered by EC50: ≤ 10 µM for the first, ≤ 10 µM for the second.

`O=c1c2ccccc2nc(-c2ccccc2F)n1NCc1ccc(F)cc1F` [Example 12, 3-(2,4-difluorobenzylamino)-2-(2-fluorophenyl)quinazolin-4(3H)-one] and `Cc1ccc2c(=O)n(NCc3ccc(F)cc3F)c(-c3ccccc3F)nc2c1` [Example 25, 3-(2,4-difluorobenzylamino)-2-(2-fluorophenyl)-7-methylquinazolin-4(3H)-one] cannot be ordered by EC50: ≤ 10 µM for the first, ≤ 10 µM for the second.

`O=c1c2cc(F)ccc2nc(-c2cccc(F)c2)n1NCc1ccccc1` [Example 103, 3-(benzylamino)-6-fluoro-2-(3-fluorophenyl)quinazolin-4(3H)-one] and `O=c1c2cc(F)ccc2nc(-c2cccc(F)c2)n1NCc1ccc(Br)cc1` [Example 106, 3-(4-bromobenzylamino)-6-fluoro-2-(3-fluorophenyl)quinazolin-4(3H)-one] cannot be ordered by EC50: ≤ 10 µM for the first, ≤ 10 µM for the second.

`CN(C)c1ccc(-c2nc3ccccc3c(=O)n2NCc2ccc(Br)cc2)cc1` [Example 42, 3-(4-bromobenzylamino)-2-(4-(dimethylamino)phenyl)quinazolin-4(3H)-one] and `O=c1c2ccccc2nc(-c2ccccc2)n1NCc1ccc(Br)cc1` [Example 104, 3-(4-bromobenzylamino)-2-phenylquinazolin-4(3H)-one] cannot be ordered by EC50: > 10 µM for the first, ≤ 10 µM for the second.

`O=c1c2ccccc2nc(-c2ccc(O)nc2)n1NCc1ccc(Br)cc1` [Example 117, 3-(4-bromobenzylamino)-2-(6-hydroxypyridin-3-yl)quinazolin-4(3H)-one] and `COc1cc(-c2nc3ccccc3c(=O)n2NCc2ccc(Br)cc2)ccc1O` [Example 99, 3-(4-bromobenzylamino)-2-(4-hydroxy-3-methoxyphenyl)quinazolin-4(3H)-one] cannot be ordered by EC50: ≤ 10 µM for the first, ≤ 10 µM for the second.

`O=C(O)c1ccc(CNn2c(-c3ccccc3F)nc3ccccc3c2=O)cc1` [Example 101, 4-((2-(2-fluorophenyl)-4-oxoquinazolin-3(4H)-ylamino)methyl)benzoic acid] and `O=c1c2ccccc2nc(-c2ccccc2F)n1NCc1ccc(C(F)(F)F)cc1` [Example 17, 2-(2-fluorophenyl)-3-(4-(trifluoromethyl)benzylamino)quinazolin-4(3H)-one] cannot be ordered by EC50: > 10 µM for the first, ≤ 10 µM for the second.

`O=c1c2ccccc2nc(-c2ccccc2F)n1NCc1ccc(OC(F)(F)F)cc1` [Example 23, 2-(2-fluorophenyl)-3-(4-(trifluoromethoxy)benzylamino)quinazolin-4(3H)-one] and `CC(C)(C)c1ccc(CNn2c(-c3ccccc3F)nc3ccccc3c2=O)cc1` [Example 11, 3-(4-tert-butylbenzylamino)-2-(2-fluorophenyl)quinazolin-4(3H)-one] cannot be ordered by EC50: ≤ 10 µM for the first, > 10 µM for the second.

`O=c1c2ccccc2nc(-c2ccc3c(c2)OCO3)n1NCc1ccc(Cl)cc1` [Example 64, 2-(benzo[d][1,3]dioxol-5-yl)-3-(4-chlorobenzylamino)quinazolin-4(3H)-one] and `Cc1ccc(-c2nc3ccccc3c(=O)n2NCc2ccc(Br)cc2)cc1Cl` [Example 109, 3-(4-bromobenzylamino)-2-(3-chloro-4-methylphenyl)quinazolin-4(3H)-one] cannot be ordered by EC50: ≤ 10 µM for the first, ≤ 10 µM for the second.

`COc1ccc2c(=O)n(NCc3ccc(Br)cc3)c(-c3ccc(F)cc3)nc2c1` [Example 33, 3-(4-bromobenzylamino)-2-(4-fluorophenyl)-7-methoxyquinazolin-4(3H)-one] and `O=c1c2c(F)cccc2nc(-c2ccc(F)cc2)n1NCc1ccc(Br)cc1` [Example 112] cannot be ordered by EC50: > 10 µM for the first, ≤ 10 µM for the second.

`O=c1c2ccccc2nc(-c2ccc(F)cc2)n1NCc1ccc(C(F)(F)F)cc1` [Example 78, 2-(4-fluorophenyl)-3-(4-(trifluoromethyl)benzylamino)quinazolin-4(3H)-one] and `COc1cc(-c2nc3ccccc3c(=O)n2NCc2ccc(F)cc2)ccc1C` [Example 67, 3-(4-fluorobenzylamino)-2-(3-methoxy-4-methylphenyl)quinazolin-4(3H)-one] cannot be ordered by EC50: ≤ 10 µM for the first, ≤ 10 µM for the second.

`Cc1cccc2c(=O)n(NCc3ccc(Cl)cc3)c(-c3ccc(F)cc3)nc12` [Example 71, 3-(4-chlorobenzylamino)-2-(4-fluorophenyl)-8-methylquinazolin-4(3H)-one] and `COc1cccc2c(=O)n(NCc3ccc(Cl)cc3)c(-c3ccc(F)cc3)nc12` [Example 77, 3-(4-Chloro-benzylamino)-2-(4-fluoro-phenyl)-8-methoxy-3H-quinazolin-4-one] cannot be ordered by EC50: ≤ 10 µM for the first, ≤ 10 µM for the second.

`Cc1ccccc1-c1nc2ccccc2c(=O)n1NCc1ccc(Br)cc1` [Example 15, 3-(4-bromobenzylamino)-2-o-tolylquinazolin-4(3H)-one] and `O=c1c2ccccc2nc(-c2ccccn2)n1NCc1ccc(Br)cc1` [Example 31, 3-(4-bromobenzylamino)-2-(pyridin-2-yl)quinazolin-4(3H)-one] cannot be ordered by EC50: ≤ 10 µM for the first, ≤ 10 µM for the second.

`CN(Cc1ccc(Br)cc1)n1c(-c2ccc(F)cc2)nc2ccccc2c1=O` [Example 90, 3-((4-bromobenzyl)(methyl)amino)-2-(4-fluorophenyl)quinazolin-4(3H)-one] and `COc1cc(OC)cc(-c2nc3ccccc3c(=O)n2NCc2ccc(Cl)cc2)c1` [Example 59, 3-(4-chlorobenzylamino)-2-(3,5-dimethoxyphenyl)quinazolin-4(3H)-one] cannot be ordered by EC50: ≤ 10 µM for the first, ≤ 10 µM for the second.

`COc1ccc2nc(-c3ccccc3F)n(NCc3ccc(F)cc3F)c(=O)c2c1` [Example 27, 3-(2,4-difluorobenzylamino)-2-(2-fluorophenyl)-6-methoxy quinazolin-4(3H)-one] was tested, and the EC50 was ≤ 10 µM.
